Results as given in US20050171194A1, “Enlargement of mucocutaneous or cutaneous organs and sites with topical compositions” (priority 2003, published 2005).
Values joined by “and” are separate entries in the source; they are usually repeats but may differ in a detail not shown here. Equal entries are not always repeated. Where two headings read alike, the source gives them in different places.

Columns and labels:
[1] = tested on: forearm skin; experiment: Forearm skin thickness measured by micrometer calipers after topical application; assay type: in vivo, human; conditions: for % Increase Over (summary of increased skin thickness): 10-35% concentration twice daily on forearm skin, range over 2-13 subjects
Source text: Measuring the increase in thickness of the skin was accomplished in accordance with the following procedures. The increased plumpness or skin thickness by topical application of active ingredients of the embodiments is mainly due to increased biosynthesis of dermal components in the skin. The three most important dermal components are glycosaminoglycans (GAGs), collagens and elastic fibers. The increased skin thickness caused by increased biosynthesis of dermal components can be distinguished from that by water retention or edema formation. In the former case, the skin remains thickened for weeks and months after termination of topical application. In the latter case, the increased skin thickness returns to the original skin thickness within days after termination of topical application. • (1) Forearm Skin
The most convenient body area for testing skin thickness is the forearm skin. For example, a test substance in a formulation was topically applied once or twice daily to left or right forearm for 3 to 6 months and the other forearm was untreated or treated with a vehicle control. The skin plumpness or thickness was measured by micrometer calipers as follows. The skin was grasped with a 2×6 cm hinge plate, the internal faces of the hinge were coated with soft cloth to prevent slippage, and manually squeezed to a threshold point when the subject felt tight. Combined skin thickness of two whole-skin layers including thickness of the two hinge leaves was measured with micrometer calipers. Thickness of the two hinge leaves was subtracted to determine the actual thickness of two whole-skin layers. Triplicate measurements on treated site were done and an average number was used for calculation of the skin thickness. […]
Hydroxycarboxylic acids, N-acyl-aldosamines, N-acylamino acids and related compounds at various concentrations were topically applied to forearms of volunteer subjects or patients. As shown in Tables 1-7, the skin plumpness or thickness was increased substantially by the compounds of the present invention. The increased skin thickness was believed to be due to increased biosynthesis of GAGs, collagen and elastic fibers. […]. From the above test results, hydroxycarboxylic acids, N-acyl-aldosamines, N-acylamino acids and related compounds used alone or in combination should be beneficial to plump and pout lips, enhance and firm eyelids, enlarge and augment breasts, elongate and expand penis.
In one of the studies, skin thickness was measured by micrometer calipers as follows: The skin was grasped with a 2×6 cm metal hinge; the internal faces of which were coated with emery cloth to prevent slippage, and manually squeezed to threshold subject discomfort. Combined thickness of two whole-skin layers including thickness of the two hinge leaves was measured with micrometer calipers. Thickness of the two hinge leaves was subtracted to determine the actual thickness of two whole-skin layers. Triplicate measurements on treated sites were conducted and an average number was used for calculation of the skin thickness.

[2] = tested on: breasts; experiment: Breast enlargement after topical application, clinical evaluation and brassiere cup; assay type: in vivo, human
Protocol: A test formulation containing a hydroxycarboxylic acid, N-acyl-aldosamine, N-acylamino acid or related compound was topically applied once or twice daily to skin or mucus membrane organs or sites such as lips, eyelids, breasts and penis for one to six months. Increased fullness, volume, contour or the effect of enlarging, expanding, augmenting, enhancing, firming, pouting, plumping or elongating after topical application was measured or determined by clinical as well as photographic evaluations. One of the measurements for breast enlargement or augmentation was by the size of brassiere cup. After topical application of the active ingredient, the subject would feel fullness or greater tightness of their treated breast with increased volume and contour, and there was a need to change and increase the size of the brassiere cup. Thus the enlargement or augmentation of the breast was determined by clinical as well as the increased size of brassiere cup.
A subject, applied topically twice daily gluconolactone 15% lotion to their right breast for 3 months. […] At this time, they began treating both breasts. […]

[3] = tested on: penis; experiment: Direct augmentation of penis, penile circumference by tape measure; assay type: in vivo, human; conditions: 20% solution two to three times daily for six weeks, person
Protocol: The plumping, pouting or firming effects on lips and eyelids by topical application of an hydroxycarboxylic acid, N-acyl-aldosamine, N-acylamino acid or related compound was determined by clinical as well as photographic evaluation. The elongation or expanding effect of penis was determined by direct measurement of penis before and after once or twice daily topical application of an hydroxycarboxylic acid, N-acyl-aldosamine, N-acylamino acid or related compound. • (C) Antioxidants
One test on direct augmentation of penis was carried out as follows. Lactobionic acid 20% solution was prepared by dissolving lactobionic acid 20 g in water 50 ml and propylene glycol 30 ml. A subject, volunteered to test an active ingredient of the present invention to enhance penile enlargement. Each morning for one week prior to treatment penile circumference was measured. Measurements were made with a cloth tailor's tape measure. Penile circumference of the glans region, which included the covering foreskin, ranged from 9.5 cm to 10.5 cm. The above lactobionic acid 20% solution was topically applied two to three times daily on the glans penis including the covering foreskin region for six weeks. Morning measurements were again made daily for one week after treatment was stopped. Penile circumference ranged from 11.5 cm to 13 cm after six weeks of topical treatment with 20% lactobionic acid solution.

[4] = Antioxidant screen tests: air oxidation of anthralin and hydroquinone
Source text: (§1) An antioxidant can be defined as a substance capable of preventing or inhibiting oxidation. The antioxidant property can be readily determined by using any one of the following test methods: prevention or retardation of air oxidation of (a) anthralin, (b) hydroquinone, or (c) banana peel. A freshly prepared anthralin solution or cream is bright yellow, and an air oxidized one is brownish or black. A hydroquinone solution or cream is colorless or white color, and an air oxidized one is brownish or black. A freshly peeled banana peel is light yellow in color and an oxidized one ranges in color from tan, dark tan, brown to brownish black.

[5] = Banana peel air oxidation test (antioxidant property); conditions: 0.1 M, 5 ml, room temperature
Source text: as §1

[6] = tested on: eyelids, lips, skin; experiment: Plumping or firming of eyelids, lips and skin, clinical and photographic evaluation; assay type: in vivo, human
Protocol: Standard photographs were taken before and after topical applications of test formulations. Plumping or firming effect was determined by clinical as well as photographic evaluation. It was discovered that hydroxycarboxylic acids, N-acyl-aldosamines, N-acylamino acids and related compounds had substantial effect on plumping or firming the eyelids. Aside from clinical as well as photographic evaluation, eyelids plumping or firming also was determined from the disappearance of certain skin lines on the eyelids skin. When eyelids skin was plumping up, the eyelids skin firmed up or pulled up, and the skin lines became less apparent or disappeared. Therefore, when the skin lines on the eyelids disappeared after topical application of a test formulation, the test substance was judged to have plumping or firming effect on the eyelids. It also was discovered that hydroxycarboxylic acids, N-acyl-aldosamines, N-acylamino acids and related compounds on topical application had firming or plumping up effects on the eyelids skin. […] Increased fullness, volume, contour or the effect of enlarging, expanding, augmenting, enhancing, firming, pouting, plumping or elongating after topical application was measured or determined by clinical as well as photographic evaluations. One of the measurements for breast enlargement or augmentation was by the size of brassiere cup. After topical application of the active ingredient, the subject would feel fullness or greater tightness of their treated breast with increased volume and contour, and there was a need to change and increase the size of the brassiere cup. Thus the enlargement or augmentation of the breast was determined by clinical as well as the increased size of brassiere cup. The plumping, pouting or firming effects on lips and eyelids by topical application of an hydroxycarboxylic acid, N-acyl-aldosamine, N-acylamino acid or related compound was determined by clinical as well as photographic evaluation. The elongation or expanding effect of penis was determined by direct measurement of penis before and after once or twice daily topical application of an hydroxycarboxylic acid, N-acyl-aldosamine, N-acylamino acid or related compound. • (C) Antioxidants

[7] = anthralin, hydroquinone or banana peel air oxidation
[8] = 14% cream twice daily, person, after two months

## CC(O)C(=O)O (racemic) [DL-Lactic Acid, 2-hydroxypropanoic acid]
[1]
  % Increase Over (summary of increased skin thickness): 17-42%

## O=C(O)C(O)c1ccccc1 (racemic) [DL-Mandelic Acid, 2-henyl-2-hydroxyethanoic acid]
[1]
  % Increase Over (summary of increased skin thickness): 22-27%
[1]; 30% solution, twice daily on forearm skin, 4 months, control = opposite forearm, one subject
  % Increase Over Control (skin thickness): 22% and 27%

## CC(=O)NC1CCSC1=O (racemic) [N-Acetyl-DL-homocysteine Thiolactone]
[1]; 5% lotion, twice daily on forearm skin, 3 weeks, control = opposite forearm, one subject
  % Increase Over Control (%) (skin thickness): 13% and 65%

## O=C1O[C@H](CO)[C@@H](O)[C@H](O)[C@H]1O [D-Gluconolactone]
[2]; 15% lotion twice daily, person, after 6 weeks, untreated left breast no change
  size of treated right breast: noticeable increase in the size of their right breast
[2]; 15% lotion twice daily, person, at the end of 3 months
  plumpness and firmness of treated right breast compared to left breast: increased in plumpness and firmness
[2]; 15% lotion, both breasts treated, at the end of another 3 months (6 month treatment period)
  plumpness and firmness of both breasts: substantially increased in plumpness and firmness
[1]
  % Increase Over (summary of increased skin thickness): 7-19%

## O=C(O)CO [Glycolic Acid, 2-hydroxyethanoic acid]
[1]
  % Increase Over (summary of increased skin thickness): 11-43%

## O=C(O)[C@H](O)[C@@H](O)[C@H](O[C@@H]1O[C@H](CO)[C@H](O)[C@H](O)[C@H]1O)[C@H](O)CO [Lactobionic Acid, lactobionic acid]
[3]
  glans penile augmentation and foreskin thickness (in words): glans penile augmentation had occurred, as well as increased thickness of foreskin
[4]
  antioxidant property by anthralin and hydroquinone test methods: moderate antioxidant
[1]
  % Increase Over (summary of increased skin thickness): 5-58%
[1]; Conc. 8%, twice daily on forearm skin, 3 months, control = opposite forearm, subject
  % Increase Over Control (%) (skin thickness): 26%
[1]; Conc. 20%, twice daily on forearm skin, 4 months, control = opposite forearm, subject
  % Increase Over Control (%) (skin thickness): 10%
[5]; after 72 hours, control in water dark tan at 24 to 72 hours
  color of fresh banana peels: changed in color to tan
[5]; period of 24 hours, control in water tan within 6 hours
  color of fresh banana peels: remained white-yellowish

## O=C(O)[C@H](O)[C@@H](O)[C@H](O[C@@H]1O[C@H](CO)[C@H](O)[C@H](O)[C@H]1O)[C@H](O)CO [Maltobionic acid, maltobionic acid]
[6]; 20% solution twice daily applied prior to continued glyceric acid 14% cream, same subject, after five weeks
  skin fullness and plumping: marked enhancement of skin fullness and plumping

## CC(C)(O)C(=O)O [Methyllactic Acid, 2-methyl-2-hydroxypropanoic acid]
[1]
  % Increase Over (summary of increased skin thickness): 14-20%

## CC(=O)N[C@@H](CS)C(=O)O [N-Acetyl-L-cysteine]
[4]; [7]
  antioxidant properties based on the screen tests: antioxidant substances

## CCC(=O)N[C@H]1C(O)O[C@H](CO)[C@@H](O)[C@@H]1O (stereo partly drawn) [N-Propanoyl-D-glucosamine]
[1]; 10% solution twice daily, at the end of treatment (6 to 9 weeks), untreated forearm still loose and relatively thin
  appearance of treated forearm skin when lifted: more firm, smooth and plump when lifted
[1]; 10% solution twice daily, person one, after 4 weeks, untreated forearm no change
  increase in skin thickness of treated forearm: 8%
[1]; 10% solution twice daily, person one, after 6 weeks, untreated forearm no change
  increase in skin thickness of treated forearm: 23%
[1]; 10% solution twice daily, person one, after 9 weeks, untreated forearm no change
  increase in skin thickness of treated forearm: 28%
[1]; 10% solution twice daily, person two, after 4 weeks, untreated forearm no change
  increase in skin thickness of treated forearm: 13%
[1]; 10% solution twice daily, person two, after 6 weeks
  increase in skin thickness of treated forearm: 27%
[1]; 10% solution twice daily, person, after 5 weeks, untreated forearm no change
  increase in skin thickness of treated forearm: 19%
[1]; 10% solution twice daily, person, after 8 weeks
  increase in skin thickness of treated forearm: 33%

## O=C(O)c1ccccc1O [Salicylic Acid, 2-hydroxybenzoic acid, reference compound]
[1]; topical application on forearm skin
  effect on skin plumpness or thickness (in words): decreased instead of increasing skin thickness

## O=C(O)C(O)CO (stereo not drawn) [glyceric acid, 2,3-dihydroxypropanoic acid]
[6]; [8]
  lips plumpness: more plump
  plumping of skin: plumping of skin was detectable
  skin of the upper arms appearance: diminished crepe paper appearance
  upper eyelids droop and fullness: diminished droop and enhanced fullness

## O=C1O[C@H]([C@H](O)CO)C(O)=C1O [isoascorbic acid, D-erythro-hex-2-enonic acidr-lactone]
[4]; [7]
  antioxidant properties based on the screen tests: antioxidant substances

## O=C(O)CC(C(=O)O)C(O)C(=O)O (stereo not drawn) [isocitric acid]
[4]
  antioxidant properties based on the screen tests: antioxidant substances

## O=C(O)CC(O)C(=O)O (stereo not drawn) [malic acid, 2-hydroxybutane-1,4-dioic acid]
[4]; [7]
  antioxidant properties based on the screen tests: antioxidant substances

## CC1(C)COC(=O)C1O (stereo not drawn) [pantolactone]
[4]; [7]
  antioxidant properties based on the screen tests: antioxidant substances
